The results in this text go back to patent US8642585B2, “Indanyloxydihydrobenzofuranylacetic acids” (Boehringer Ingelheim International GmbH, priority 2012, dated 2014).

This test addresses human GPR40 receptor (Homo sapiens, UniProt O14842). Description: Assay II: IP1 accumulation (IPOne HTRF) in 1321N1 cells stably expressing human GPR40. In kind it is cell-based. Conditions: 1321N1 cells expressing human GPR40, stimulation 1 h at 37° C., 5% CO2, LiCl 50 mM. The procedure: IP1 accumulation measurements using the IPOne assay system—1321N1 cells stably expressing human GPR40 receptor (Euroscreen, Belgium) are seeded 24 h before the assay in white 384-well plates in culture medium containing 10% FCS, 1% Na-Pyruvate and 400 μg/mL G418. IP1 is assayed according to the manufacturers description (Cisbio Bioassays, France). In brief, the assay is started by substitution of the culture medium by stimulation buffer (Hepes 10 mM, CaCl2 1 mM, MgCl2 0.5 mM, KCl 4.2 mM, NaCl 146 mM, glucose 5.5 mM and LiCl 50 mM, pH 7.4). Cells are stimulated for 1 h at 37° C., 5% CO2 by addition of the compounds that are diluted in stimulation buffer containing LiCl. Assays are stopped by adding HTRF-conjugates (IP1-d2 and Anti-IP1 cryptate Tb) and lysis buffer, provided by the manufacturer. After an incubation time of 1 h at room temperature plates are measured using an EnVision™, Perkin Elmer. The obtained fluorescence ratios at 665/615 nM are then used to calculate the pEC50 values using Assay Explorer 3.3 Software (Accelrys, Inc.) by interpolation using an IP1 reference curve and subsequent sigmoidal curve fitting allowing for a variable hill slope.

SMILES strings stand for the structures.

Sequence of human GPR40 receptor (O14842 whole entry): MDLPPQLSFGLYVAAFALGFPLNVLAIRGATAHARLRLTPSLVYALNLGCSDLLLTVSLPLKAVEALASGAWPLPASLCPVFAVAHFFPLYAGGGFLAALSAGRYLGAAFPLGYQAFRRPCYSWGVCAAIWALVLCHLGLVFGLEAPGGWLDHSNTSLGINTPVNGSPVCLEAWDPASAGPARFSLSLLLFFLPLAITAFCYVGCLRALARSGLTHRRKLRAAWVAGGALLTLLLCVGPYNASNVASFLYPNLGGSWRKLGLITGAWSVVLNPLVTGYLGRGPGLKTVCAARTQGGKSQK

`Cc1cc(OC[C@@H]2CCS(=O)(=O)C2)cc(C)c1-c1ccc(F)c2c1CC[C@H]2Oc1ccc2c(c1)OC[C@H]2CC(=O)O` (single isomer, unassigned) [Example 46]: the response was half-maximal at 7 nM (EC50).

As for `Cc1cc(OC2CCC(C)(O)C2)cc(C)c1-c1ccc(F)c2c1CC[C@H]2Oc1ccc2c(c1)OC[C@H]2CC(=O)O` (single isomer, unassigned) [Example 78], the half-maximal effective concentration (EC50) is 4 nM.

The compound `Cc1cc(OC2CCC(C)(O)C2)cc(C)c1-c1ccc(F)c2c1CC[C@H]2Oc1ccc2c(c1)OC[C@H]2CC(=O)O` (single isomer, unassigned) [Example 79] had an EC50 of 5 nM.

Compound `Cc1cc(OC[C@@H](C)CS(C)(=O)=O)cc(C)c1-c1ccc(F)c2c1CC[C@H]2Oc1ccc2c(c1)OC[C@H]2CC(=O)O` [Example 36, ((S)-6-{(R)-7-Fluoro-4-[4-((R)-3-methanesulfonyl-2-methyl-propoxy)-2,6-dimethyl-phenyl]-indan-1-yloxy}-2,3-dihydro-benzofuran-3-yl)-acetic acid] displayed an EC50 of 8 nM.

In turn, `Cc1cc(OC[C@H](C)CS(C)(=O)=O)cc(C)c1-c1ccc(F)c2c1CC[C@H]2Oc1ccc2c(c1)OC[C@H]2CC(=O)O` [Example 37, ((S)-6-{(R)-7-Fluoro-4-[4-((S)-3-methanesulfonyl-2-methyl-propoxy)-2,6-dimethyl-phenyl]-indan-1-yloxy}-2,3-dihydro-benzofuran-3-yl)-acetic acid] displayed an EC50 of 6 nM.

`Cc1cc(OCCN2CCCS2(=O)=O)cc(C)c1-c1ccc(F)c2c1CC[C@H]2Oc1ccc2c(c1)OC[C@H]2CC(=O)O` [Example 40]: the concentration giving a half-maximal response (EC50) amounted to 13 nM.

`Cc1cc(OC2CCS(=O)(=O)NC2)cc(C)c1-c1ccc(F)c2c1CC[C@H]2Oc1ccc2c(c1)OC[C@H]2CC(=O)O` (stereo partly drawn) [Example 41, ((S)-6-{(R)-4-[4-(1,1-Dioxo-1-[1,2]thiazinan-4-yloxy)-2,6-dimethyl-phenyl]-7-fluoro-indan-1-yloxy}-2,3-dihydro-benzofuran-3-yl)-acetic acid] came in with an EC50 of 18 nM.

With `Cc1cc(OC2CCS(=O)(=O)N(C)C2)cc(C)c1-c1ccc(F)c2c1CC[C@H]2Oc1ccc2c(c1)OC[C@H]2CC(=O)O` (stereo partly drawn) [Example 42, ((S)-6-{(R)-4-[2,6-Dimethyl-4-(2-methyl-1,1-dioxo-1-[1,2]thiazinan-4-yloxy)-phenyl]-7-fluoro-indan-1-yloxy}-2,3-dihydro-benzofuran-3-yl)-acetic acid], the EC50 worked out at 11 nM.

Compound `Cc1cc(OCCCCS(C)(=O)=O)cc(C)c1-c1ccc(F)c2c1CC[C@H]2Oc1ccc2c(c1)OC[C@H]2CC(=O)O` [Example 43, ((S)-6-{(R)-7-Fluoro-4-[4-(4-methanesulfonyl-butoxy)-2,6-dimethyl-phenyl]-indan-1-yloxy}-2,3-dihydro-benzofuran-3-yl)-acetic acid] displayed an EC50 of 22 nM.

`Cc1cc(O[C@@H]2CCN(S(C)(=O)=O)C2)cc(C)c1-c1ccc(F)c2c1CC[C@H]2Oc1ccc2c(c1)OC[C@H]2CC(=O)O` [Example 44, ((S)-6-{(R)-7-Fluoro-4-[4-((R)-1-methanesulfonyl-pyrrolidin-3-yloxy)-2,6-dimethyl-phenyl]-indan-1-yloxy}-2,3-dihydro-benzofuran-3-yl)-acetic acid] showed an EC50 of 17 nM.

`Cc1cc(OCC(C)(C)S(C)(=O)=O)cc(C)c1-c1ccc(F)c2c1CC[C@H]2Oc1ccc2c(c1)OC[C@H]2CC(=O)O` [Example 45, ((S)-6-{(R)-7-Fluoro-4-[4-(2-methanesulfonyl-2-methyl-propoxy)-2,6-dimethyl-phenyl]-indan-1-yloxy}-2,3-dihydro-benzofuran-3-yl)-acetic acid] displayed a concentration for a half-maximal effect (EC50) of 9 nM.

On to `Cc1cc(OC2CCN(S(C)(=O)=O)CC2)cc(C)c1-c1ccc(F)c2c1CC[C@H]2Oc1ccc2c(c1)OC[C@H]2CC(=O)O` [Example 48, ((S)-6-{(R)-7-Fluoro-4-[4-(1-methanesulfonyl-piperidin-4-yloxy)-2,6-dimethyl-phenyl]-indan-1-yloxy}-2,3-dihydro-benzofuran-3-yl)-acetic acid], for which the EC50 was found to be 14 nM.
